According to patent publication US10865216B2, “Tricyclic Gyrase inhibitors” (MERCK SHARP & DOHME CORP., priority 2012, dated 2020):
≈ marks a conversion by molar mass, not a printed value.

Tests used:
S. aureus ATCC 13709 = assay: MIC, S. aureus ATCC 13709; assay type: cell-based; conditions: Alamar Blue read after overnight incubation at 35° C.; for MIC: Staphylococcus aureus, ATCC13709, S. aureus, read-out: MIC Sa; for MIC Sa: S. aureus
E. coli ATCC 25922 = assay: MIC, E. coli ATCC 25922; assay type: cell-based; conditions: Alamar Blue read after overnight incubation at 35° C.; for MIC: Escherichia coli, ATCC25922, E. coli, read-out: MIC Ec; for MIC Ec: E. coli

Structure (SMILES) | MIC (S. aureus ATCC 13709) | MIC (E. coli ATCC 25922) | MIC Sa (S. aureus ATCC 13709) | MIC Ec (E. coli ATCC 25922)
Cc1ncc(Oc2nc(N3C[C@H](N)C4(CC4)C3)c3c(n2)[nH]c2c(N(C)C(=O)CN)cc(F)cc23)cn1 [Compound 4.426] | 8 µg/mL (≈ 16.3 µM) | > 16 µg/mL |  | 
Cc1ncc(Oc2nc(N3C[C@H](NC(=O)CN)C4(CC4)C3)c3c(n2)[nH]c2c(N(C)C(=O)CN)cc(F)cc23)cn1 [Compound 4.427] | > 16 µg/mL | > 16 µg/mL |  | 
CNc1cc(F)cc2c1[nH]c1nc(Oc3cnc(CCO)nc3)nc(N3CC4CC3C[C@@H]4N)c12 (stereo partly shown) [Compound 4.428] | ≤ 0.5 µg/mL | 2 µg/mL (≈ 4.31 µM) |  | 
CNc1cc(F)cc2c1[nH]c1nc(Oc3cnc(CCO)nc3)nc(N3CC4C[C@@H](N)C4C3)c12 (stereo partly shown) [Compound 4.429] | ≤ 0.5 µg/mL | 1 µg/mL (≈ 2.15 µM) |  | 
CNc1cc(F)cc2c1[nH]c1nc(Oc3cnc(C(C)O)nc3)nc(N3CC4(CC[C@H]4N)C3)c12 (stereo partly shown) [Compound 4.430] | ≤ 0.5 µg/mL | ≤ 0.5 µg/mL |  | 
CNc1cc(F)cc2c1[nH]c1nc(Oc3cnc(C(C)(C)O)nc3)nc(N3CC4(CC[C@H]4N)C3)c12 [Compound 4.431] | ≤ 0.5 µg/mL | ≤ 0.5 µg/mL |  | 
CNc1cc(F)cc2c1[nH]c1nc(Oc3cnc(C)nc3)nc(-c3ccc(Cl)c(N)c3)c12 [Compound 4.432] | ≤ 0.5 µg/mL | > 16 µg/mL |  | 
CNc1cc(F)cc2c1[nH]c1nc(Oc3cnc(OC)nc3)nc(N3C[C@H](N)C4(CC4)C3)c12 [Compound 4.433] | ≤ 0.5 µg/mL | ≤ 0.5 µg/mL |  | 
CNc1cc(F)cc2c1[nH]c1nc(Oc3cnc(C#N)c(C)c3)nc(N3CC4CC3C[C@@H]4N)c12 (stereo partly shown) [Compound 4.435] | ≤ 0.5 µg/mL | ≤ 0.5 µg/mL |  | 
CNc1cc(F)cc2c1[nH]c1nc(Oc3cnc(C)nc3)nc(N3CC(N)C(C(F)(F)F)C3)c12 (stereo not shown) [Compound 4.436] | ≤ 0.5 µg/mL | > 16 µg/mL |  | 
CNc1cc(F)cc2c1[nH]c1nc(Oc3cnc(C)nc3)nc(N3CC(N)C(C(=O)OC)C3)c12 (stereo not shown) [Compound 4.437] | ≤ 0.5 µg/mL | 1 µg/mL (≈ 2.14 µM) |  | 
CNc1cc(F)cc2c1[nH]c1nc(Oc3cnc(C)nc3)nc(N3CC(N)C(C(=O)N4CCOCC4)C3)c12 (stereo not shown) [Compound 4.438] | 1 µg/mL (≈ 1.92 µM) | 16 µg/mL (≈ 30.7 µM) |  | 
CNc1cc(F)cc2c1[nH]c1nc(Oc3cnc(C)nc3)nc(N3CC(N)C(C(=O)NCC(C)O)C3)c12 (stereo not shown) [Compound 4.439] | 8 µg/mL (≈ 15.7 µM) | > 16 µg/mL |  | 
CNc1cc(F)cc2c1[nH]c1nc(Oc3cnc(C)nc3)nc(N3CC(N)C(C(=O)NCCN4CCOCC4)C3)c12 (stereo not shown) [Compound 4.440] | 16 µg/mL (≈ 28.3 µM) | > 16 µg/mL |  | 
CNc1cc(F)cc2c1[nH]c1nc(Oc3cnc(C(C)(C)C)nc3)nc(N3CC4CC3C[C@H]4N)c12 (stereo partly shown) [Compound 4.441] | ≤ 0.5 µg/mL | ≤ 0.5 µg/mL |  | 
CNc1cc(F)cc2c1[nH]c1nc(Oc3cnc(C(C)(C)N)nc3)nc(N3C[C@H]4CC3C[C@H]4N)c12 [Compound 4.442] | 1 µg/mL (≈ 2.09 µM) | 2 µg/mL (≈ 4.19 µM) |  | 

Structure (SMILES) | MIC (S. aureus ATCC 13709) | MIC (E. coli ATCC 25922) | MIC Sa (S. aureus ATCC 13709) | MIC Ec (E. coli ATCC 25922)
CNc1cc(F)cc2c1[nH]c1nc(Oc3cnc(CF)nc3)nc(N3C[C@H]4CC3C[C@H]4N)c12 [Compound 4.443] | ≤ 0.5 µg/mL | ≤ 0.5 µg/mL |  | 
CNc1cc(F)cc2c1[nH]c1nc(Oc3cnc(C)nc3)nc(-c3ccc(F)cc3CN)c12 [Compound 4.445] | 2 µg/mL (≈ 4.47 µM) | > 16 µg/mL |  | 
CNc1cc(F)cc2c1[nH]c1nc(Oc3cnc(C)nc3)nc(-c3cc(CN)ccc3F)c12 [Compound 4.446] | 2 µg/mL (≈ 4.47 µM) | 8 µg/mL (≈ 17.9 µM) |  | 
CNc1cc(F)cc2c1[nH]c1nc(Oc3cnc(C)nc3)nc(-c3cccc(CN)c3F)c12 [Compound 4.447] | 4 µg/mL (≈ 8.94 µM) | 16 µg/mL (≈ 35.8 µM) |  | 
CNc1cc(F)cc2c1[nH]c1nc(Oc3cnc(C)nc3)nc(-c3cccnc3N)c12 [Compound 4.448] | ≤ 0.5 µg/mL | 1 µg/mL (≈ 2.4 µM) |  | 
CNc1cc(F)cc2c1[nH]c1nc(Oc3cnc(C)nc3)nc(-c3cncnc3)c12 [Compound 4.449] | ≤ 0.5 µg/mL | > 16 µg/mL |  | 
CNc1cc(F)cc2c1[nH]c1nc(Oc3cnc(C)nc3)nc(-c3cncc(N)c3)c12 [Compound 4.450] | ≤ 0.5 µg/mL | 2 µg/mL (≈ 4.8 µM) |  | 
CNc1cc(F)c(F)c2c1[nH]c1nc(Oc3ncc(C)cn3)nc(N3CC4C(N)C4C3)c12 (stereo not shown) [Compound 5.04] |  |  | ≤0.5 µg/mL | ≤0.5 µg/mL
CNc1cc(F)c(F)c2c1[nH]c1nc(Oc3ncc(C)cn3)nc(N3CC(N)C3)c12 [Compound 5.06] |  |  | ≤0.5 µg/mL | ≤0.5 µg/mL
CNc1cc(F)c(F)c2c1[nH]c1nc(Oc3cnc(CO)nc3)nc(N3C[C@H]4C[C@@H]3C[C@H]4N)c12 [Compound 5.14] | ≤ 0.5 µg/mL | ≤ 0.5 µg/mL |  | 
CNc1cc(F)c(F)c2c1[nH]c1nc(Oc3cnc4c(c3)ncn4C3CC3)nc(N3C[C@H]4C[C@@H]3C[C@H]4N)c12 [Compound 5.15] | ≤ 0.5 µg/mL | 1 µg/mL (≈ 1.93 µM) |  | 
CNc1cc(F)c(F)c2c1[nH]c1nc(Oc3cncnc3)nc(N3CC4C(N)C4C3)c12 (stereo not shown) [Compound 6.19] |  |  | >16 µg/mL | >16 µg/mL
CNc1cc(F)c(C)c2c1[nH]c1nc(Oc3cnc(C)nc3)nc(N3CC4(CCC4N)C3)c12 (stereo not shown) [Compound 6.20] |  |  | 4 µg/mL (≈ 8.92 µM) | >16 µg/mL
CNc1cc(F)c(C)c2c1[nH]c1nc(Oc3cnc(C)nc3)nc(NCCCN)c12 [Compound 6.21] |  |  | >16 µg/mL | >16 µg/mL
CNc1cc(C)cc2c1[nH]c1nc(Oc3cnc(C)nc3)nc(N3CC4C(N)C4C3)c12 (stereo not shown) [Compound 6.26] |  |  | ≤0.5 µg/mL | 1 µg/mL (≈ 2.4 µM)
CNc1cc(C)cc2c1[nH]c1nc(Oc3cncnc3)nc(N3CC4C(N)C4C3)c12 (stereo not shown) [Compound 6.27] |  |  | ≤0.5 µg/mL | 1 µg/mL (≈ 2.48 µM)

Now from value to compound:

MIC (S. aureus ATCC 13709) | MIC (E. coli ATCC 25922) | MIC Sa (S. aureus ATCC 13709) | MIC Ec (E. coli ATCC 25922) | Structure (SMILES)
8 µg/mL (≈ 18 µM) | > 64 µg/mL |  |  | CNc1nccc2c1[nH]c1nc(Sc3cnc4nccnc4c3)nc(N3CC[C@@H](N)C3)c12 [Compound 7.01]
> 64 µg/mL | 32 µg/mL (≈ 84.8 µM) |  |  | CNc1nccc2c1[nH]c1nc(Oc3cncnc3)nc(N3CC[C@@H](N)C3)c12 [Compound 7.02]
2 µg/mL (≈ 4.38 µM) | > 64 µg/mL |  |  | COc1nccc2c1[nH]c1nc(Sc3cnc4cccnc4c3)nc(N3CC4C(N)C4C3)c12 (stereo not shown) [Compound 7.03]
8 µg/mL (≈ 19.6 µM) | 32 µg/mL (≈ 78.5 µM) |  |  | CNc1ncnc2c1[nH]c1nc(Oc3cncc(F)c3)nc(N3CC4C(N)C4C3)c12 (stereo not shown) [Compound 7.04]
8 µg/mL (≈ 19.8 µM) | 64 µg/mL (≈ 158 µM) |  |  | CNc1ncnc2c1[nH]c1nc(Oc3cnc(C)nc3)nc(N3CC4C(N)C4C3)c12 (stereo not shown) [Compound 7.05]
8 µg/mL (≈ 19 µM) | 64 µg/mL (≈ 152 µM) |  |  | CNc1ncnc2c1[nH]c1nc(Oc3cncc(F)c3)nc(N3CC(N)C4(CC4)C3)c12 (stereo not shown) [Compound 7.06]
16 µg/mL (≈ 38.1 µM) | > 64 µg/mL |  |  | CNc1nccc2c1[nH]c1nc(Oc3cncc(F)c3)nc(N3CCC4(CC4N)C3)c12 (stereo not shown) [Compound 7.07]
16 µg/mL (≈ 38.2 µM) | > 64 µg/mL |  |  | CNc1ncnc2c1[nH]c1nc(Oc3cnc(C)nc3)nc(N3CC(N)C4(CC4)C3)c12 (stereo not shown) [Compound 7.08]
8 µg/mL (≈ 19.1 µM) | > 64 µg/mL |  |  | CNc1ncnc2c1[nH]c1nc(Oc3cnc(C)nc3)nc(N3CCC4(CC4N)C3)c12 (stereo not shown) [Compound 7.09]
> 64 µg/mL | > 64 µg/mL |  |  | CNc1ncnc2c1[nH]c1nc(Oc3cncnc3)nc(Oc3cncnc3)c12 [Compound 7.10]
> 64 µg/mL | > 64 µg/mL |  |  | CNc1ncnc2c1[nH]c1nc(-c3cncnc3)nc(N3CC4C(N)C4C3)c12 (stereo not shown) [Compound 7.11]
> 64 µg/mL | > 64 µg/mL |  |  | CNc1ncnc2c1[nH]c1nc(Oc3cnc(C)nc3)nc(N3CCC(CN)C3)c12 (stereo not shown) [Compound 7.12]
